Laboratory results: ChEMBL document CHEMBL1132732, “HINT predictive analysis of binding between retinol binding protein and hydrophobic ligands” (Bioorg Med Chem Lett, 2000)

What was measured:
[1] = Dissociation constant with retinol binding protein was determined
[2] = Partition coefficient (logP); type: physicochemical; details: octanol/water

| Compound | Kd [1] [nM] | logP [2] |
| --- | --- | --- |
| CC1=C(/C=C/C(C)=C/C=C/C(C)=C/C(=O)Nc2ccc(O)cc2)C(C)(C)CCC1 [FENRETINIDE] | 170 | – |
| C/C=C(C)/C=C/C=C(C)/C=C/C1=C(C)CCCC1(C)C | – | 8.15 |
| CC1=C(/C=C/C(C)=C/C=C/C(C)=C/CO)C(C)(C)CCC1 [RETINOL] | 70 | 6.16 |
| CCNC(=O)/C=C(C)/C=C/C=C(C)/C=C/C1=C(C)CCCC1(C)C | 90 | 6.31 |
